Assay results from paper PMC6166661 (Neuropeptides, 2018).

Tests used:
[1] = system: isoproterenol-stimulated lipolysis; test: Acute effect on isoproterenol-stimulated lipolysis; type: in vivo, rat; conditions: rats
C3aR1 = conditions: ref Cianflone et al., 2003; Murray et al., 2000; cited from earlier work

Compound	change of plasma palmitate concentration during infusion ([1]; constant i.v. infusion 30 ng•min^−1, vs basal)	plasma palmitate concentration at end of experiment, of the initial value ([1]; isoproterenol infusion plus saline bolus (control group))	activity at C3aR1 (C3aR1)
CC(C)NCC(O)c1ccc(O)c(O)c1 (stereo not drawn) [isoproterenol]	more than doubled	~ 75%	–
ASP: des-arginine peptide generated from C3a by cleaving the C-terminal arginine residue (R77)	–	–	inactive
